“Also recorded” adds a separate entry of the source. Read-outs that look alike come from different tables or passages of the source.
Key:
[1] = test system: salivary glands, kidneys, red marrow; experiment: Dosimetry estimate for ^225Ac-PSMA-617 extrapolated from ^177Lu-PSMA-617 scans; type: in vivo, human; conditions: FIG. 15
Experimental: The clinical dosimetry basis and dose finding study was performed by using the isotopes ^225Ac and ^177Lu by Kratochwil et al. A dosimetry estimate was calculated on the basis of time-activity curves derived from serially obtained ^177Lu-PSMA-617 scans extrapolated to the physical half-life of ^225Ac, assuming instant decay of unstable daughter nuclides. Salvage therapies empirically conducted with 50 (n=4), 100 (n=4), 150 (n=2), and 200 kBq/kg (n=4) of 225Ac-PSMA-617 were evaluated retrospectively regarding toxicity and treatment response. Eight of 14 patients received further cycles in either 2- or 4-mo intervals with identical or de-escalated activities.
In FIG. 15, the absorbed radiation dose estimates for ^225Ac-PSMA-617 are shown together with I-131-“PSMA” and ^177Lu-PSMA-617 doses. We see that mean dose for salivary glands is approximately 70% higher with ^225Ac-PSMA-617 than with ^177Lu-PSMA-617, and red marrow dose 85% higher, respectively.

[2] = test system: patients with mCRPC; conditions: cited from earlier work
[3] = test system: mCRPC patients; conditions: cited from earlier work
[4] = test system: patient; conditions: Sathekge 2019a; 1 patient; 8 MBq per cycle; cited from earlier work
[5] = test system: chemotherapy naive patients; conditions: cited from earlier work
[6] = test system: patient; conditions: De Medeiros 2019; 1 patient; 6-8 MBq per cycle; cited from earlier work
[7] = test system: men with mCRPC; conditions: cited from earlier work
[8] = test system: patients with mCRPC; conditions: 26 patients, cited from earlier work; for Biochemical response PSA50 (PSA decline of >50%): all progressed after ^177Lu-PSMA
[9] = test system: patients with mCRPC; conditions: cited from earlier work; remark: listed apart in the source
[10] = test system: patients; conditions: van der Doelen 2020; 13 patients; 6-8 MBq per cycle; cited from earlier work
[11] = test system: patients; conditions: out of 60; cited from earlier work
[12] = test system: cerebral metastases; conditions: in vivo; cited from earlier work
[13] = Kratochwil 2016, 2 patients, 100 kBq/kg per cycle
[14] = both patients, 100 kBq/kg every 8 weeks
[15] = Kratochwil 2017, 14 patients, 50-200 kBq/kg per cycle
[16] = Sathekge 2019b, 17 patients, 4-8 MBq per cycle
[17] = 73 patients, percentage in parentheses
[18] = Sathekge 2020, 73 patients, 4-8 MBq per cycle
[19] = Feuerecker 2020, 4-8 MBq per cycle
[20] = Yadav 2020, 28 patients, 100 kBq/kg per cycle
[21] = group with previous ^177Lu-PSMA

SMILES: O=C(O)CC[C@H](NC(=O)N[C@@H](CCCCNC(=O)[C@H](Cc1ccc2ccccc2c1)NC(=O)[C@H]1CC[C@H](CNC(=O)CN2CCN(CC(=O)O)CCN(CC(=O)O)CCN(CC(=O)O)CC2)CC1)C(=O)O)C(=O)O [^225Ac-PSMA-617, metal not drawn]
- mean dose for salivary glands higher than with ^177Lu-PSMA-617 [1]: approximately 70%
- red marrow dose higher than with ^177Lu-PSMA-617 [1]: 85%
- Salivary gland toxicity (xerostomia) ([2]; 2 patients): reported in both patients
- Biochemical response PSA50 [2, 13]: 100%
- Major toxicity [2, 13]: xerostomia
- PSA [2, 14]: declined below the measurable level
- response on ^68Ga-PSMA-11 PET/CT scan [2, 14]: complete response
- Biochemical response PSA50 [3, 15]: 44%
- Major toxicity [3, 15]: xerostomia
- OS [3, 15]: na/8.5 mo
- duration of prostate-specific antigen decline ([3]; at 100 kBq/kg): less than 4 months
- dose-limiting toxicity ([3]; if treatment activity exceeded 100 kBq/kg per cycle): severe xerostomia
- patients with remarkable antitumor activity (objective radiologic response or tumor marker decline) ([3]; of 11 evaluable patients): 9 patients
- toxicity ([3]; treatment activities of 50 kBq/kg): without toxicity
- antitumor response ([3]; treatment activities of 50 kBq/kg, high-tumor-burden patients): insufficient antitumor response
- Biochemical response PSA50 [4]: 100%
- most frequently noted side-effect ([5]; 17 patients, no discontinuation due to severe symptoms): Grade 1-2 xerostomia
- Biochemical response PSA50 [5, 16]: 88%
- Major toxicity [5, 16]: xerostomia
- nephrotoxicity ([5]; a patient with only a single functional kidney, poor renal functioning from baseline): Grade 4 nephrotoxicity
- patients with PSA decline >90% ([5]; at end of therapy, 17 patients): 82%
- patients still alive ([5]; median follow up of 13 months post initiation of treatment): 82%
- surviving patients in remission with undetectable serum PSA levels ([5]; median follow up of 13 months): 50%
- surviving patients with stable disease ([5]; median follow up of 13 months): 50%
- Biochemical response PSA50 [6]: 100%
- Major toxicity [6]: xerostomia; also recorded: xerophtalmia
- Median PFS ([7]; 73 patients, 95% CI, 13.1-17.4 months): 15.2 months
- Median OS ([7]; 73 patients, 95% CI, 16.2-19.9 months): 18 months
- Anemia, Grade I or II ([7]; 73 patients): 22 patients
- Anemia, Grade IV ([7]; 73 patients): 0 patients
- Anorexia, Grade I or II ([7]; 73 patients): 23 patients
- Anorexia, Grade III ([7]; 73 patients): 0 patients
- Anorexia, Grade IV ([7]; 73 patients): 0 patients
- Constipation, Grade I or II ([7]; 73 patients): 19 patients
- Constipation, Grade III ([7]; 73 patients): 0 patients
- Constipation, Grade IV ([7]; 73 patients): 0 patients
- Dry eyes, Grade I or II ([7]; 73 patients): 4 patients
- Dry eyes, Grade III ([7]; 73 patients): 0 patients
- Dry eyes, Grade IV ([7]; 73 patients): 0 patients
- Dry mouth, Grade I or II ([7]; 73 patients): 62 patients
- Dry mouth, Grade III ([7]; 73 patients): 0 patients
- Dry mouth, Grade IV ([7]; 73 patients): 0 patients
- Dysgeusia, Grade I or II ([7]; 73 patients): 4 patients
- Dysgeusia, Grade III ([7]; 73 patients): 0 patients
- Dysgeusia, Grade IV ([7]; 73 patients): 0 patients
- Dyspepsia, Grade I or II ([7]; 73 patients): 3 patients
- Dyspepsia, Grade III ([7]; 73 patients): 0 patients
- Dyspepsia, Grade IV ([7]; 73 patients): 0 patients
- Dysuria, Grade I or II ([7]; 73 patients): 13 patients
- Dysuria, Grade III ([7]; 73 patients): 0 patients
- Dysuria, Grade IV ([7]; 73 patients): 0 patients
- Fatigue, Grade I or II ([7]; 73 patients): 37 patients
- Fatigue, Grade III ([7]; 73 patients): 0 patients
- Fatigue, Grade IV ([7]; 73 patients): 0 patients
- Hypoalbuminemia, Grade I or II ([7]; 73 patients): 14 patients
- Hypoalbuminemia, Grade III ([7]; 73 patients): 0 patients
- Hypoalbuminemia, Grade IV ([7]; 73 patients): 0 patients
- Leukopenia, Grade I or II ([7]; 73 patients): 7 patients
- Leukopenia, Grade IV ([7]; 73 patients): 0 patients
- Nausea, Grade I or II ([7]; 73 patients): 15 patients
- Nausea, Grade III ([7]; 73 patients): 0 patients
- Nausea, Grade IV ([7]; 73 patients): 0 patients
- Renal Failure, Grade I or II ([7]; 73 patients): 18 patients
- Thrombocytopenia, Grade I or II ([7]; 73 patients): 6 patients
- Thrombocytopenia, Grade IV ([7]; 73 patients): 0 patients
- Vomiting, Grade I or II ([7]; 73 patients): 4 patients
- Vomiting, Grade III ([7]; 73 patients): 0 patients
- Vomiting, Grade IV ([7]; 73 patients): 0 patients
- Weight loss, Grade I or II ([7]; 73 patients): 28 patients
- Weight loss, Grade III ([7]; 73 patients): 0 patients
- Weight loss, Grade IV ([7]; 73 patients): 0 patients
- patients with negative ^68Ga-PSMA PET/CT images post therapy ([7]; 73 patients): 29%
- Anemia, Grade III [7, 17]: 5 (7) patients
- Leukopenia, Grade III [7, 17]: 2 (3) patients
- Renal Failure, Grade III [7, 17]: 3 (4) patients
- Renal Failure, Grade IV [7, 17]: 2 (3) patients
- Thrombocytopenia, Grade III [7, 17]: 1 (1) patients
- Biochemical response PSA50 (≥50% PSA decline) [7, 18]: 70%
- OS [7, 18]: 18.0 mo
- PFS [7, 18]: 15.2 mo
- Biochemical response PSA50 (≥50% PSA decline) ([7]; Sathekge 2020, 73 patients, 4-8 MBq per cycle, listed as PSMA-617): 70%
- patients with any decline in PSA ([7]; at the end of therapy, 73 patients): 82%
- patients who had passed away ([7]; of 73): 13 patients
- patients with disease progression ([7]; of 73): 23 patients
- median overall survival ([8]; 95% CI 4.5-12.1 months): 7.7 months
- complete response [8]: no complete response was seen
- patients refusing any further treatment due to severe xerostomia [8]: 23%
- patients with any PSA reduction [8]: 88%
- xerostomia [8]: Mild irreversible xerostomia was seen in all patients
- patients with treatment discontinued to prevent further deterioration of marrow toxicity ([8]; pre-existing marrow toxicity): 8%
- Biochemical response PSA50 (PSA decline of >50%) [8, 19]: 65%
- Biochemical response PSA50 (PSA decline of >50%) ([8]; Feuerecker 2020, 4-8 MBq per cycle, listed as PSMA-617): 65%
- Major toxicity [8, 19]: xerostomia; also recorded: Hb↓, WBC↓, plt↓
- OS [8, 19]: 7.7 mo
- PFS [8, 19]: 3.5 mo
- Biochemical response PSA50 [9, 20]: 39%
- Major toxicity [9, 20]: xerostomia; also recorded: fatigue
- OS [9, 20]: 17 mo
- PFS [9, 20]: 12 mo
- PSA decline of >50% ([9]; ^177Lu PSMA naïve group): 53.8%
- median survival ([9]; ^177Lu PSMA naïve group): 12 months
- overall survival ([9]; ^177Lu PSMA naïve group): 17 months
- progression rate ([9]; ^177Lu PSMA naïve group): 22.3%
- PSA decline of >50% [9, 21]: 26.6%
- median survival [9, 21]: 10 months
- overall survival [9, 21]: 16 months
- progression rate [9, 21]: 46%
- Biochemical response PSA50 [10]: 69%
- Major toxicity [10]: xerostomia
- OS [10]: na/8.5 mo
- patients with poor response despite sufficient tumor uptake in PSMA PET/CT [11]: 10 patients
- blood-brain barrier crossing [12]: crosses the blood-brain barrier
- effect on cerebral metastases [12]: significant regression of cerebral metastases

— patent publication US20250303004A1, “RADIOPHARMACEUTICAL COMPOSITIONS FOR LOW TOXICITY ACTINIUM IN TARGETED RADIONUCLIDE THERAPY” (Curium US LLC, priority 2021, published 2025)
